The test system of data set [1] is UACC-257. Put plainly: NCI 60 cell-line screen, UACC-257 (Melanoma). The format is cell-based, human. As to conditions: averaged, quadruplicate testing, 48 h, SRB. The procedure: (§1) The NCI screen consists of a panel of 60 different human tumor cell lines against which compounds are tested over a defined range of concentrations to determine the relative degree of growth inhibition or cytotoxicity against each cell line. The design and operation of the screen is such that for each compound tested, both the absolute and relative sensitivities of individual cell lines comprising the screen are sufficiently reproducible that a characteristic profile or “fingerprint” of cellular response is generated. Compounds which are active in the NCI screen show pronounced differential tumor growth-inhibitory and/or cytotoxic effects to the diverse cell lines comprising the 60 cell-line panel. The degree of differential response between the most and least sensitive lines typically may be relatively small (e.g., 2- to 10-fold), or occasionally as great as 3-4 orders of magnitude. […]
(§2) In the screening assay, each agent is tested over a broad concentration range against every cell line in the panel. […] Test compounds are evaluated at five 10-fold dilutions. […] Optical densities are measured on automated plate readers, followed by computerized data acquisition, processing, storage, and availability for display and analysis. […]

In data set [2] the test system is ACHN. The experiment in a line: NCI 60 cell-line screen, ACHN (Kidney). The note with it: averaged, quadruplicate testing, 48 h, SRB. The format is cell-based, human. The procedure: as §1, §2
Data set [3] has as its system IGROVI. Put plainly: NCI 60 cell-line screen, IGROVI (Ovary). The format is cell-based, human. As to conditions: averaged, quadruplicate testing, 48 h, SRB. The procedure: as §1, §2
Data set [4] relates to HOP-92. Put plainly: NCI 60 cell-line screen, HOP-92 (Lung). The format is cell-based, human. The note with it: averaged, quadruplicate testing, 48 h, SRB. The procedure: as §1, §2
Data set [5] is described as follows: Stability of compounds and extracts in solvents and media. The format is physicochemical. The text has this: Therefore, all subsequent attempts at isolation avoided the use of chloroform or exposure of samples to CDCl3, and no further problems with decomposition or loss of bioactivity were encountered. Moreover, there was no indication of any instability of the pure isolated compounds in any of the other common organic solvents employed, nor in aqueous or biological media. Therefore, a typical isolation and purification of the salicylihalamides from the selected crude extract is as follows.

Data set [6] concerns A498. The experiment in a line: NCI 60 cell-line screen, A498 (Kidney). The format is cell-based, human. The note with it: averaged, quadruplicate testing, 48 h, SRB. The procedure: as §1, §2
In data set [7] the test system is TK-10. Put plainly: NCI 60 cell-line screen, TK-10 (Kidney). The format is cell-based, human. The note with it: averaged, quadruplicate testing, 48 h, SRB. The procedure:
as §1, §2

The subject of data set [8] is NCI-H226. Put plainly: NCI 60 cell-line screen, NCI-H226 (Lung). The format is cell-based, human. The note with it: averaged, quadruplicate testing, 48 h, SRB. The procedure: as §1, §2
Data set [9] has as its system SNB-19. The experiment in a line: NCI 60 cell-line screen, SNB-19 (Brain). The format is cell-based, human. As to conditions: averaged, quadruplicate testing, 48 h, SRB. The procedure:
as §1, §2

The subject of data set [10] is RXF-393. The experiment in a line: NCI 60 cell-line screen, RXF-393 (Kidney). The note with it: averaged, quadruplicate testing, 48 h, SRB. The format is cell-based, human. The procedure:
as §1, §2

Data set [11] concerns MDA-MB-435. Put plainly: NCI 60 cell-line screen, MDA-MB-435 (Breast). The note with it: averaged, quadruplicate testing, 48 h, SRB. The format is cell-based, human. The procedure: as §1, §2
In data set [12] the test system is UACC-62. Put plainly: NCI 60 cell-line screen, UACC-62 (Melanoma). The format is cell-based, human. As to conditions: averaged, quadruplicate testing, 48 h, SRB. The procedure: as §1, §2
Data set [13] deals with DU-145. The experiment in a line: NCI 60 cell-line screen, DU-145 (Prostate). The note with it: averaged, quadruplicate testing, 48 h, SRB. The format is cell-based, human. The procedure: as §1, §2
The test system of data set [14] is RPMI-8226. Put plainly: NCI 60 cell-line screen, RPMI-8226 (Leukemia). As to conditions: averaged, quadruplicate testing, 48 h, SRB. The format is cell-based, human. The procedure: as §1, §2
The test system of data set [15] is UO-31. The experiment in a line: NCI 60 cell-line screen, UO-31 (Kidney). The format is cell-based, human. As to conditions: averaged, quadruplicate testing, 48 h, SRB. The procedure: as §1, §2
Data set [16] has as its system HCT-116. Put plainly: NCI 60 cell-line screen, HCT-116 (Colon). The format is cell-based, human. The note with it: averaged, quadruplicate testing, 48 h, SRB. The procedure: as §1, §2
Data set [17] deals with SF-268. Put plainly: NCI 60 cell-line screen, SF-268 (Brain). The format is cell-based, human. As to conditions: averaged, quadruplicate testing, 48 h, SRB. The procedure: as §1, §2
For data set [18], the system named is OVCAR-4. Put plainly: NCI 60 cell-line screen, OVCAR-4 (Ovary). The format is cell-based, human. As to conditions: averaged, quadruplicate testing, 48 h, SRB. The procedure: as §1, §2
For data set [19], the system named is OVCAR-8. The experiment in a line: NCI 60 cell-line screen, OVCAR-8 (Ovary). The note with it: averaged, quadruplicate testing, 48 h, SRB. The format is cell-based, human. The procedure: as §1, §2
Data set [20] relates to COLO 205. The experiment in a line: NCI 60 cell-line screen, COLO 205 (Colon). The format is cell-based, human. The note with it: averaged, quadruplicate testing, 48 h, SRB. The procedure:
as §1, §2

Data set [21] concerns HL-60-TB. Put plainly: NCI 60 cell-line screen, HL-60-TB (Leukemia). The format is cell-based, human. As to conditions: averaged, quadruplicate testing, 48 h, SRB. The procedure:
as §1, §2

Data set [22] relates to KM12. The experiment in a line: NCI 60 cell-line screen, KM12 (Colon). The format is cell-based, human. As to conditions: averaged, quadruplicate testing, 48 h, SRB. The procedure: as §1, §2
Data set [23] relates to HCC-2998. The experiment in a line: NCI 60 cell-line screen, HCC-2998 (Colon). The note with it: averaged, quadruplicate testing, 48 h, SRB. The format is cell-based, human. The procedure: as §1, §2

In the case of salicylihalamide A, the “negative log10 GI50” value was determined as 8.47 in [1]; 8.01 in data set [2]; 7.89 in data set [3]; 7.77 in data set [4]; 6.55 in data set [6]; 5.74 in data set [7]. Further, the “negative log10 GI50” value in [8] is on record as 8.80; in [9], 6.47; in data set [10], 9.07; in data set [11], 7.82; in data set [12], 8.38; in data set [13] it was 8.26. The “negative log10 GI50” value in data set [14] is 7.89; in data set [15], 8.31; in [16] it was 8.74; in data set [17] it was 7.55; in data set [18], 5.30; in [19], 8.43. Moreover, the “negative log10 GI50” value was 8.07 in data set [20], 9.04 in data set [21], 8.30 in data set [22] and 6.74 in [23]. In addition, the “stability in deuterated chloroform (CDCl3)” value in data set [5] is on record as “sensitivity”.

These data come from patent US6353019B1, “Macrocyclic lactones, compositions, and methods of use” (United States of America as represented by the Department …, priority 1997, dated 2002).
